Assay results reported in US20200017495A1, “NOVEL HETEROCYCLIC COMPOUNDS AND THEIR USE IN PREVENTING OR TREATING BACTERIAL INFECTIONS” (priority 2017, published 2020).

Experiments:
Experiment in all cases: MIC of compounds alone and combined with antibacterials, broth microdilution (CLSI)
Type in all cases: cell-based
[1] = test system: Providencia rettgeri (PRE) isolates
Summary of the method: (§1)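 Antibacterial MICs in combination were determined at every compound concentration tested, alongside compound MICs alone. Bacteria grew in cation-adjusted Mueller-Hinton broth starting from 5.10^5 CFU/mL, incubated at 35° C for 16-20 h, and endpoints were the lowest concentrations with no visible growth.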

[2] = test system: Citrobacter koseri (CKR) isolates
Summary of the method: as §1

[3] = test system: Escherichia coli (ECO) isolates
Summary of the method: as §1

C=CC1=C(C(=O)O)N2C(=O)[C@@H](NC(=O)/C(=N\OCC(=O)O)c3csc(N)n3)[C@H]2SC1 [FIX, Cefixime]
1 µg/mL: MIC ATB in combination ([2]; CKO ROU, AF3 @ 8 μg/mL) | MIC ATB in combination ([2]; CKO UFR149, CLA @ 4 μg/mL) | MIC ([2]; strain CKO ROU, genotype TEM-1, SHV-12, CTX-M-15, OXA-1, OXA-48) | MIC ATB in combination ([3]; ECO 260096, CLA @ 4 μg/mL) | MIC ATB in combination ([3]; ECO UFR15, CLA @ 4 μg/mL) | MIC ATB in combination ([3]; ECO UFR32, CLA @ 4 μg/mL)
0.5 µg/mL: MIC ATB in combination ([2]; CKO ROU, AF2 @ 8 μg/mL) | MIC ([2]; strain CKO UFR149, genotype OXA-48) | MIC ATB in combination ([3]; ECO 4133, CLA @ 4 μg/mL) | MIC ATB in combination ([3]; ECO 5302, CLA @ 4 μg/mL) | MIC ATB in combination ([3]; ECO 190317, CLA @ 4 μg/mL) | MIC ATB in combination ([3]; ECO 190457, CLA @ 4 μg/mL) | MIC ATB in combination ([3]; ECO 190549, CLA @ 4 μg/mL) | MIC ATB in combination ([3]; ECO 200344, CLA @ 4 μg/mL) | MIC ATB in combination ([3]; ECO 260304, CLA @ 4 μg/mL) | MIC ATB in combination ([3]; ECO 260508, CLA @ 4 μg/mL)
2 µg/mL: MIC ATB in combination ([2]; CKO ROU, CLA @ 4 μg/mL) | MIC ATB in combination ([2]; CKO UFR150, AF2 @ 8 μg/mL) | MIC ATB in combination ([2]; CKO UFR150, AF3 @ 8 μg/mL) | MIC ATB in combination ([2]; CKO UFR150, CLA @ 4 μg/mL) | MIC ([2]; strain CKO UFR150, genotype TEM-1, OXA-48) | MIC ATB in combination ([3]; ECO 180070, CLA @ 4 μg/mL) | MIC ATB in combination ([3]; ECO 190314, CLA @ 4 μg/mL)
32 µg/mL: MIC ([1]; strain PRE UFR236, genotype TEM-1, OXA-48) | MIC ATB in combination ([1]; strain PRE UFR236, with CLA @ 4 μg/mL)
>128 µg/mL: MIC ATB in combination ([1]; PRE UFR99, AF2 @ 8 μg/mL) | MIC ATB in combination ([1]; PRE UFR99, AF3 @ 8 μg/mL) | MIC ATB in combination ([1]; PRE UFR99, CLA @ 4 μg/mL) | MIC ([1]; strain PRE UFR96, genotype CTX-M-15, NDM-1) | MIC ATB in combination ([1]; strain PRE UFR96, with CLA @ 4 μg/mL) | MIC ([1]; strain PRE UFR97, genotype TEM-1, NDM-1) | MIC ATB in combination ([1]; strain PRE UFR97, with AF2 @ 8 μg/mL) | MIC ATB in combination ([1]; strain PRE UFR97, with AF3 @ 8 μg/mL) | MIC ATB in combination ([1]; strain PRE UFR97, with CLA @ 4 μg/mL) | MIC ([1]; strain PRE UFR99, genotype OXA-1, OXA-181) | MIC ATB in combination ([3]; ECO UFR17, AF2 @ 8 μg/mL) | MIC ATB in combination ([3]; ECO UFR17, AF3 @ 8 μg/mL) | MIC ATB in combination ([3]; ECO UFR17, CLA @ 4 μg/mL) | MIC ATB in combination ([3]; ECO UFR18, CLA @ 4 μg/mL) | MIC ATB in combination ([3]; ECO UFR19, CLA @ 4 μg/mL) | MIC ATB in combination ([3]; ECO UFR39, CLA @ 4 μg/mL) | MIC ATB in combination ([3]; ECO UFR41, CLA @ 4 μg/mL)
<=0.25 μg/mL: MIC ATB in combination ([1]; strain PRE UFR236, with AF2 @ 8 μg/mL) | MIC ATB in combination ([1]; strain PRE UFR236, with AF3 @ 8 μg/mL) | MIC ATB in combination ([3]; ECO 131119, CLA @ 4 μg/mL) | MIC ATB in combination ([3]; ECO 200159, CLA @ 4 μg/mL) | MIC ATB in combination ([3]; ECO 200259, CLA @ 4 μg/mL) | MIC ATB in combination ([3]; ECO 200344, AF3 @ 8 μg/mL) | MIC ATB in combination ([3]; ECO 260096, AF2 @ 8 μg/mL) | MIC ATB in combination ([3]; ECO 260096, AF3 @ 8 μg/mL) | MIC ATB in combination ([3]; ECO RGN238, CLA @ 4 μg/mL)
4 µg/mL: MIC ATB in combination ([3]; ECO UFR16, CLA @ 4 μg/mL)
<0.25 µg/mL: MIC ATB in combination ([1]; strain PRE UFR96, with AF2 @ 8 μg/mL) | MIC ATB in combination ([1]; strain PRE UFR96, with AF3 @ 8 μg/mL) | MIC ATB in combination ([2]; CKO UFR149, AF2 @ 8 μg/mL) | MIC ATB in combination ([2]; CKO UFR149, AF3 @ 8 μg/mL) | MIC ATB in combination ([3]; ECO 4133, AF2 @ 8 μg/mL) | MIC ATB in combination ([3]; ECO 4133, AF3 @ 8 μg/mL) | MIC ATB in combination ([3]; ECO 5302, AF2 @ 8 μg/mL) | MIC ATB in combination ([3]; ECO 5302, AF3 @ 8 μg/mL) | MIC ATB in combination ([3]; ECO 131119, AF2 @ 8 μg/mL) | MIC ATB in combination ([3]; ECO 131119, AF3 @ 8 μg/mL) | MIC ATB in combination ([3]; ECO 180070, AF2 @ 8 μg/mL) | MIC ATB in combination ([3]; ECO 180070, AF3 @ 8 μg/mL) | MIC ATB in combination ([3]; ECO 190314, AF2 @ 8 μg/mL) | MIC ATB in combination ([3]; ECO 190314, AF3 @ 8 μg/mL) | MIC ATB in combination ([3]; ECO 190317, AF2 @ 8 μg/mL) | MIC ATB in combination ([3]; ECO 190317, AF3 @ 8 μg/mL) | MIC ATB in combination ([3]; ECO 190457, AF2 @ 8 μg/mL) | MIC ATB in combination ([3]; ECO 190457, AF3 @ 8 μg/mL) | MIC ATB in combination ([3]; ECO 190549, AF2 @ 8 μg/mL) | MIC ATB in combination ([3]; ECO 190549, AF3 @ 8 μg/mL) | MIC ATB in combination ([3]; ECO 200159, AF2 @ 8 μg/mL) | MIC ATB in combination ([3]; ECO 200159, AF3 @ 8 μg/mL) | MIC ATB in combination ([3]; ECO 200259, AF2 @ 8 μg/mL) | MIC ATB in combination ([3]; ECO 200259, AF3 @ 8 μg/mL) | MIC ATB in combination ([3]; ECO 200344, AF2 @ 8 μg/mL) | MIC ATB in combination ([3]; ECO 260304, AF2 @ 8 μg/mL) | MIC ATB in combination ([3]; ECO 260304, AF3 @ 8 μg/mL) | MIC ATB in combination ([3]; ECO 260508, AF2 @ 8 μg/mL) | MIC ATB in combination ([3]; ECO 260508, AF3 @ 8 μg/mL) | MIC ATB in combination ([3]; ECO RGN238, AF2 @ 8 μg/mL) | MIC ATB in combination ([3]; ECO RGN238, AF3 @ 8 μg/mL) | MIC ATB in combination ([3]; ECO UFR15, AF2 @ 8 μg/mL) | MIC ATB in combination ([3]; ECO UFR15, AF3 @ 8 μg/mL) | MIC ATB in combination ([3]; ECO UFR16, AF2 @ 8 μg/mL) | MIC ATB in combination ([3]; ECO UFR16, AF3 @ 8 μg/mL) | MIC ATB in combination ([3]; ECO UFR18, AF2 @ 8 μg/mL) | MIC ATB in combination ([3]; ECO UFR18, AF3 @ 8 μg/mL) | MIC ATB in combination ([3]; ECO UFR19, AF2 @ 8 μg/mL) | MIC ATB in combination ([3]; ECO UFR19, AF3 @ 8 μg/mL) | MIC ATB in combination ([3]; ECO UFR32, AF2 @ 8 μg/mL) | MIC ATB in combination ([3]; ECO UFR32, AF3 @ 8 μg/mL) | MIC ATB in combination ([3]; ECO UFR39, AF2 @ 8 μg/mL) | MIC ATB in combination ([3]; ECO UFR39, AF3 @ 8 μg/mL) | MIC ATB in combination ([3]; ECO UFR41, AF2 @ 8 μg/mL) | MIC ATB in combination ([3]; ECO UFR41, AF3 @ 8 μg/mL)
